Laboratory results from patent US20250114430A1, “MODIFIED PEPTIDOMIMETICS AND METHODS OF USE” (The University of North Carolina at Chapel Hill, priority 2021, published 2025).
Entries after “also recorded” stand apart in the source; their conditions may differ. No end group written: not given here.

Legend:
HEK293T cells [1] = assay: Store operated Ca^2+ influx in HEK293T cells after incubation of peptide in ARDS BAL; type: cell-based
Text: ELD607 is active in ARDS patient immune cells. Pulmonary neutrophilic inflammation and increased lung neutrophil elastase levels are common in ARDS patient lungs. We therefore evaluated whether ELD607 remained stable in BAL samples patients with ARDS caused by bacterial pneumonia. […] (FIG. 27, panel A).

[2] = system: immune cells from tracheal aspirates of ARDS/bacterial pneumonia patients; assay: Thapsigargin-induced cytosolic Ca^2+ in immune cells from ARDS/bacterial pneumonia patients; type: cell-based, human; conditions: Fluo-4, 1 h exposure
Protocol: We next obtained tracheal aspirates from intubated ARDS/bacterial pneumonia patients. We immediately isolated immune cells from these samples and simultaneously loaded them with the Ca^2+ dye Fluo-4 and exposed them to vehicle, ELD607 or scrambled peptide for 1 h.

P. aeruginosa [3] = assay: P. aeruginosa growth in the presence of peptide; type: cell-based; conditions: in vitro
HEK293T cells [4] = assay: Cytoplasmic Ca^2+ (Fluo-4) in HEK293T cells incubated with ELD peptides; type: cell-based; conditions: 2 hours with Fluo-4 plus or minus peptide
αSMA [5] = assay: αSMA expression in fibroblasts after three days of TGFβ (confocal microscopy); type: cell-based
Protocol: After three days of TGFβ induced αSMA deposition, ELD607 was then added for 24 h at 10 μM and αSMA expression was assessed by confocal microscopy. Data are shown as mean+/−SEM and data were analyzed by ANOVA.
FIG. 39A-39B show ELD607 reduces αSMA deposition. After three days of TGFβ induced αSMA deposition, ELD607 or other compounds (pirfenidone, nintedanib, zigovractin, YM-58483) were then added as indicated for 24 h at 10 μM. […] Data are shown as mean+/−SEM and data were analyzed by ANOVA.
In vitro Methods: Fibroblasts were exposed to 10 nM TFGβ for 3-7 days as indicated. Then, ELD607 was added overnight. Fibroblasts were then fixed in paraformaldehyde, stained with primary a smooth muscle actin (αSMA) antibody, and imaged by confocal microscopy. Myofibroblasts were exposed to ELD607 without any TGFβ pre-treatment. In some cases, Western blotting was used to probe for αSMA.
Fibroblasts were exposed to TGFβ for three days and then exposed to vehicle or the indicated compounds. Cells were then fixed, stained for αSMA, and expression measured by confocal microscopy.

αSMA [6] = assay: TGFβ-induced myofibroblast differentiation of CCL-210 fibroblasts (αSMA); type: cell-based, human; conditions: CCL-210, 7 days 10 ng/mL TGFβ, then ELD607 for 48 hours
Protocol: FIG. 36A-36C show ELD607 reduces TGFβ-induced myofibroblast formation. FIG. 36A is a schematic showing fibroblast to myofibroblast formation and αSMA deposition. […] Data are mean data from Western blots in normal fibroblasts.
In vitro Methods: Fibroblasts were exposed to 10 nM TFGβ for 3-7 days as indicated. […] Fibroblasts were then fixed in paraformaldehyde, stained with primary a smooth muscle actin (αSMA) antibody, and imaged by confocal microscopy. Myofibroblasts were exposed to ELD607 without any TGFβ pre-treatment. In some cases, Western blotting was used to probe for αSMA.
ELD607 reverses myofibroblast differentiation. Increased alpha smooth muscle actin (αSMA) deposition is a hallmark of damaged IPF lungs, and is a common marker for identifying when fibroblasts turn into myofibroblasts—key drivers of fibrosis, and it is generally considered that less αSMA is beneficial (FIG. 36A). It was then determined whether ELD607 alters myofibroblast formation. The human lung fibroblast cell line CCL-210 was treated for 7 days with 10 ng/mL TGFβ to induce myofibroblast differentiation.

[7] = system: SARS-CoV-2 S1 pseudovirus; type: cell-based
[8] = molecular target: T1, Orai1/store operated Ca^2+ influx (Homo sapiens, UniProt Q96D31); assay: Store operated Ca^2+ influx in HEK293T cells (Example 2); type: cell-based; conditions: a6 and ELD607 combined
T1 construct: Endogenous Orai1/store operated Ca^2+ influx have been extensively studied in HEK293T cells; endogenous in cells; host or cells: HEK293T
Text: Endogenous Orai1/store operated Ca^2+ influx have been extensively studied in HEK293T cells, so this cell type was used to understand ELD607-Orai1 interactions. […] Thapsigargin is a SERCA pump inhibitor that prevents uptake of cytosolic Ca^2+ into the endoplasmic reticulum. Thapsigargin is commonly used to stimulate Orai1/store operated Ca^2+ influx. […] Dynamic light scattering (DLS) was used to evaluate binding of ELD607 to peptides of Orai1 extracellular loops. […] Thus, it was concluded that ELD607 interacts with Orai1.

P. aeruginosa [9] = assay: Murine model of P. aeruginosa bacterial pneumonia; type: in vivo, mice
Protocol: FIGS. 15A-15D show (FIG. 15A) a schematic of a murine model of P. aeruginosa (top left panel), and bar graphs of (FIG. 15B) BAL monocytes, (FIG. 15C) BAL neutrophils, and (FIG. 15D) bacterial counts in whole lung at 24 hours quantified following experiments according to the mouse model as schematized and conditions as noted on the x-axis.
FIGS. 16A-16G show data from further P. aeruginosa infection experiments. […] Increased inflammation is seen in infection as indicated in the alveolar/gas exchange regions of the lungs which show alveolar damage and thickening that prevent gas exchange. ELD607 treatment normalized alveoli histology similar to naïve lung conditions.
Mice were exposed to vehicle or P. aeruginosa±ELD607 and BAL was obtained and stained with an anti-Orai1 antibody, fluorescent 2° and DAPI. […] FIG. 16G panels B and C show plots showing fluorescence intensities of Orai1 in macrophages and neutrophils, respectively. ***p<0.001 different as indicated. ND=no detectable neutrophils in these groups.
Further in vivo experiments were performed. […] Bronchoalveolar lavage (BAL) and organ collection was performed 24 hours following treatment with peptide (FIG. 15A). […] Moreover, 24 h after infection, about 10^9 CFUs could be detected in murine whole lung homogenate. However, ELD607 caused an ˜5 log10 reduction in lung bacteria (FIG. 15D).
Mice were exposed to vehicle or P. aeruginosa±ELD607 and BAL was obtained and stained with an anti-Orai1 antibody, fluorescent 2° and DAPI. […] FIG. 16G panels B and C show plots showing fluorescent intensities of Orai1 in macrophages and neutrophils, respectively.
To examine Orai1 levels, BAL was then obtained from P. aeruginosa-infected mice, immediately cytospun, fixed in PFA and stained with an antibody against Orai1.

[10] = 10^7 CFU, 0.51 mg/kg intranasal

T1 sequence (Q96D31 whole entry): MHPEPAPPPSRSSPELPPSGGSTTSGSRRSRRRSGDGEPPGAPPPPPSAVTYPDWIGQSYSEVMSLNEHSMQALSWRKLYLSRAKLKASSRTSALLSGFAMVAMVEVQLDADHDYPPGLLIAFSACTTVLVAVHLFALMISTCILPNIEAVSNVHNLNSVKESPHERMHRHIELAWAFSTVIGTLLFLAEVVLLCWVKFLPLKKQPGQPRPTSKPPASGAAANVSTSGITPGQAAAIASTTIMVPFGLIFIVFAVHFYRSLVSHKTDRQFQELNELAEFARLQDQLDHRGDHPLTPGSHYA

VHDIVNMLIRG [ELD607, VHDIVNMLIRG]
inhibition of store operated Ca^2+ influx after incubation in ARDS BAL (HEK293T cells [1]): did not prevent ELD607 from inhibiting store operated Ca^2+ influx
thapsigargin elevation of cytosolic Ca^2+ [2]: not after exposure to ELD607
P. aeruginosa growth (P. aeruginosa [3]): no effect on P. aeruginosa growth
cytoplasmic calcium levels as compared to a control scrambled peptide (HEK293T cells [4]): reduced cytoplasmic calcium levels
reduction in αSMA versus pirfenidone, nintedanib, zigrocractin and YM-58483 (αSMA [5]; 10 μM, 24 h): significantly greater reduction in αSMA than all other compounds tested
αSMA expression, dose dependence (αSMA [5]; TGFβ three days, then ELD607 24 h): dose-dependently reduced αSMA expression
αSMA levels (western blot and immunofluorescence) (αSMA [6]): significantly reduced
pseudovirus infection (% DsRed-positive cells) [7]: significantly reduced infection
additivity of inhibitory effects of a6 and ELD607 on thapsigargin-induced elevations in cytosolic Ca^2+ [8]: not additive
BAL monocytes (P. aeruginosa [9]; 10^7 CFU intratracheally, 0.51 mg/kg peptide intranasal 1 hour later, 24 hours): significantly retained monocyte levels
BAL lactate dehydrogenase (LDH) (P. aeruginosa [9]; [10]): significantly reduced
BAL neutrophil elastase (P. aeruginosa [9]; [10]): significantly reduced
BAL total protein (P. aeruginosa [9]; [10]): significantly reduced
BAL neutrophils (P. aeruginosa [9]; 10^7 CFU, 0.51 mg/kg intranasal, 24 hours): reduced neutrophil levels
survival (P. aeruginosa [9]; 10^9 CFU/ml P. aeruginosa, 48 hours post-infection): significantly improved survival
bacterial counts in the spleen (P. aeruginosa [9]; 24 hours post ELD607 treatment): reduced bacterial counts in the spleen
BAL neutrophils, delayed treatment (P. aeruginosa [9]; ELD607 added 24 hours after infection): reduced
BAL Macrophage Inflammatory Protein 2 (MIP-2) (P. aeruginosa [9]; P. aeruginosa infected mice): reduced
BAL interleukin-17 (IL-17) (P. aeruginosa [9]; P. aeruginosa infected mice): reduced
BAL keratinocytes-derived chemokine (KC) (P. aeruginosa [9]; P. aeruginosa infected mice): reduced
IL-6 (P. aeruginosa [9]; P. aeruginosa infected mice): reduced
interleukin-1β (IL-1β) (P. aeruginosa [9]; P. aeruginosa infected mice): reduced
lung histology (P. aeruginosa [9]; P. aeruginosa infected mice): normalization of alveoli
tumor necrosis factor-α (TNF-α) (P. aeruginosa [9]; P. aeruginosa infected mice): reduced
weight loss (P. aeruginosa [9]; intranasal 10^7 CFU/ml P. aeruginosa, 24 hours): prevented the total weight loss
Orai1 levels in BAL cells (anti-Orai1 staining) (P. aeruginosa [9]; naïve and P. aeruginosa-infected mice): reduces Orai1 in murine BAL macrophages; also recorded: significant decrease in Orai1 levels
reduction in lung bacteria (P. aeruginosa [9]; whole lung homogenate, 24 h after infection): ~5 log10
